This passage reports GI50 and TGI results from PubChem BioAssay (NCI).

Experiment in all cases: NCI-60 cell line screen, 48 h
Assay [1] has as its system LOX IMVI melanoma.
Assay [2] concerns OVCAR-5 ovarian.
In assay [3] the test system is SF-295 CNS.
For assay [4], the system named is RPMI-8226 leukemia.
Assay [5] has as its system IGROV1 ovarian.
For assay [6], the system named is HL-60(TB) leukemia.
Assay [7] relates to OVCAR-8 ovarian.
For assay [8], the system named is HOP-62 NSCLC.

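48-hour exposure; five concentrations; linearly interpolated endpoints. At the GI50, growth is halved. At the TGI there is no net growth.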

Take `O=C(c1ccccc1Nc1ccnc(C(F)(F)F)c1)N1CCN(c2cccc(Cl)c2)CC1`: the GI50 in assay [1] was 15.8 µM; in assay [2], 27.9 µM; in assay [3], 16.5 µM; in assay [4], 6.3 µM; in assay [5], 5.53 µM; in assay [6], 16.2 µM. Further, the GI50 in assay [7] was 24.4 µM; in assay [8] it was 28.2 µM. Besides, the TGI in assay [1] was 32.2 µM; in assay [2] it was over 86.4 µM; in assay [3], 65.6 µM; in assay [4], 48 µM; in assay [5], 24 µM; in assay [6], 59 µM. In addition, the TGI in assay [7] was over 87.8 µM; in assay [8], over 100 µM.

As to `O=C(Nn1c(-c2ccccc2)nc2ccccc2c1=O)c1ccccn1`, the TGI in assay [1], in assay [3], in assay [4], in assay [5], in assay [6] and in assay [7] was over 100 µM throughout. Moreover, the TGI in assay [8] was over 100 µM.

For `COc1ccc(-c2nn(-c3cccc(Cl)c3)cc2C=C(C#N)C#N)cc1`, the GI50 in assay [1] is 2.08 µM; in assay [2], 3.68 µM; in assay [3], 2.31 µM; in assay [4] it was 2.3 µM; in assay [5], 2.85 µM; in assay [6] it was 2.39 µM. The GI50 in assay [7] is 2.2 µM; in assay [8] it was 2.59 µM. Also, the TGI in assay [1] came out at 4.81 µM; in assay [2], 48.4 µM; in assay [3] it was 5.31 µM; in assay [4], 7.1 µM; in assay [5] it was 6.29 µM; in assay [6], 6.37 µM. The TGI in assay [7] stood at 5.77 µM; in assay [8], 6.04 µM.

`S=c1nc(-c2nc(=S)[nH]c3c2CCCCCCCCCC3)c2c([nH]1)CCCCCCCCCC2`: the TGI in assay [1], in assay [2], in assay [3], in assay [5], in assay [6] and in assay [7] was over 100 µM each time. In addition, the TGI in assay [8] was over 100 µM.

For `Cl.[Pt].[c-]1ccccc1-c1ccccn1.c1ccc(P(c2ccccc2)C([PH+](c2ccccc2)c2ccccc2)[PH+](c2ccccc2)c2ccccc2)cc1`, the GI50 in assay [1] was 1.65 µM; in assay [2], 2.9 µM; in assay [3] it was 2.48 µM; in assay [4] it was 0.525 µM; in assay [5], 2.18 µM; in assay [6], 1.1 µM. Also, the GI50 in assay [7] is 0.853 µM; in assay [8], 2.39 µM. Moreover, the TGI was 4.6 µM in assay [1]; 23.9 µM in assay [2]; 12.4 µM in assay [3]; 3.66 µM in assay [4]; over 100 µM in assay [5]; 5.32 µM in assay [6]. Also, the TGI in assay [7] was over 100 µM; in assay [8], 9 µM.

As for `Nc1ccc(-c2nc3ccc4[nH]ncc4c3c3c2CCCC3)cc1F`, the GI50 in assay [1] was 2 µM; in assay [2], 2.42 µM; in assay [3] it was 2.85 µM; in assay [4], 0.842 µM; in assay [5] it was 0.407 µM; in assay [6] it was 1.24 µM. Also, the results for the GI50 in assay [7] and in assay [8] were 1.57 µM and 1.67 µM, respectively. Moreover, the TGI in assay [1] came out at 7.8 µM; in assay [2], 23 µM; in assay [3] it was 11.1 µM; in assay [4], 7.37 µM; in assay [5] it was 11.2 µM; in assay [6], 3.42 µM. Further, the TGI in assay [7] is 21.6 µM; in assay [8] it was 16.9 µM.

`COc1ccc(C(=O)c2cc(OC)c(OC)c(OC)c2)cc1OC(C)=O`: the GI50 in assay [1] is 0.022 µM; in assay [2], 4.55 µM; in assay [3], 0.0796 µM; in assay [4] it was 0.0324 µM; in assay [5] it was 0.272 µM; in assay [6], under 0.0141 µM. For the same molecule, the GI50 is 0.0451 µM in assay [7] and 0.0618 µM in assay [8]. Further, the TGI in assay [1] was over 100 µM; in assay [2], over 100 µM; in assay [3] it was over 100 µM; in assay [4] it was 26.8 µM; in assay [5], over 100 µM; in assay [6], under 0.0228 µM. Moreover, the TGI in assay [7] and in assay [8] was over 100 µM throughout.

For `C#CCN1C(=O)/C(=c2\sc3n(c2=O)C2C(NN=3)N(CC)C(=O)N2CC)c2ccccc21` (stereo unspecified), the GI50 in assay [1] is 0.73 µM; in assay [2], 1.21 µM; in assay [3], 0.529 µM; in assay [4] it was 0.375 µM; in assay [5] it was 0.589 µM; in assay [6], 0.271 µM. The GI50 in assay [7] is 1.07 µM; in assay [8], 0.868 µM. For the same molecule, the TGI in assay [1] was over 100 µM; in assay [2] it was over 100 µM; in assay [3], 8.83 µM; in assay [5], over 91.1 µM; in assay [6], 0.775 µM; in assay [7], over 100 µM. This molecule also came in with a TGI in assay [8] of over 52.6 µM.

For `CN1CCn2c(Br)ccc2C1=O`, the TGI in assay [1], in assay [3], in assay [4], in assay [5], in assay [6] and in assay [7] was over 100 µM each time. This molecule registered a TGI in assay [8] of over 100 µM.

In the case of `COc1ccc(SC2c3cc(OC)c(OC)cc3Oc3nc(N)c(C#N)c(N)c32)cc1` (stereo unspecified), the GI50 in assay [1] was 0.585 µM; in assay [2] it was 1.75 µM; in assay [3] it was 1.6 µM; in assay [4], 0.354 µM; in assay [5] it was 0.762 µM; in assay [7], 1.69 µM. In assay [8], the GI50 is 1.7 µM. The TGI in assay [1] was found to be 1.86 µM; in assay [2], 3.39 µM; in assay [3], 2.96 µM; in assay [4], 1.81 µM; in assay [5] it was 2.37 µM; in assay [7], 3.18 µM. Moreover, the TGI in assay [8] was found to be 3.09 µM.

Turning to `COc1ccc(-c2oc(=O)ccc2C#Cc2cc(OC)c(OC)c(OC)c2)cc1O`, the GI50 in assay [1] is 24.2 µM; in assay [2] it was over 100 µM; in assay [3], 12.8 µM; in assay [4] it was 10.9 µM; in assay [5], 39.9 µM; in assay [6], 8.96 µM. The GI50 in assay [7] is 35.2 µM; in assay [8], 18.5 µM. Moreover, the TGI was over 100 µM in assay [1]; over 100 µM in assay [2]; 75.4 µM in assay [3]; 35.1 µM in assay [4]; over 100 µM in assay [5]; 35.7 µM in assay [6]. In addition, the TGI in assay [7] was over 100 µM; in assay [8], 87.4 µM.

With `O=C1NC(=O)/C(=C/C=C/c2ccccc2)S1`, the GI50 was 0.999 µM in assay [1]; 14.1 µM in assay [2]; 0.576 µM in assay [3]; 3.67 µM in assay [4]; 12.2 µM in assay [5]; 1.27 µM in assay [6]. Further, the GI50 in assay [7] was 3.48 µM; in assay [8], 1.37 µM. For the same molecule, the TGI was 14.7 µM in assay [1]; over 100 µM in assay [2]; 6.35 µM in assay [3]; over 96.5 µM in assay [4]; 57.5 µM in assay [5]; 9.58 µM in assay [6]. The TGI in assay [7] was over 100 µM; in assay [8] it was 33.1 µM.

As to `Cn1nc(C(F)(F)F)c(-c2ccc(Cl)c(C(F)(F)F)c2)c1-c1ccc(OCc2ccc(Cl)cc2)cc1O`, the GI50 in assay [1] was 1.58 µM; in assay [2], 1.83 µM; in assay [3] it was 1.64 µM; in assay [4], 1.98 µM; in assay [5] it was 2.18 µM; in assay [6], 1.4 µM. For the same molecule, the GI50 in assay [7] is 1.73 µM; in assay [8] it was 1.58 µM. The TGI in assay [1] worked out at 5.73 µM; in assay [2] it was 8.26 µM; in assay [3], 5.59 µM; in assay [4] it was 7.29 µM; in assay [5], 8.47 µM; in assay [6], 3.5 µM. The results for the TGI in assay [7] and in assay [8] were 6.37 µM and 6.04 µM, respectively.

For `C=C1CCC2C3(C)COC(c4ccc(NC(C)=O)cc4)OC3CCC2(C)C1C/C=C1/C(=O)OCC1O` (stereo unspecified), the GI50 is 21 µM in assay [1]; over 100 µM in assay [2]; 1.55 µM in assay [3]; 0.985 µM in assay [4]; over 100 µM in assay [5]; 2.93 µM in assay [6]. Further, the results for the GI50 in assay [7] and in assay [8] were 7.76 µM and over 100 µM, respectively. For the same molecule, the TGI in assay [1] was over 100 µM; in assay [2], over 100 µM; in assay [3], 6.75 µM; in assay [4], 8.32 µM; in assay [5] it was over 100 µM; in assay [6], over 100 µM. Moreover, the TGI in assay [7] and in assay [8] was over 100 µM throughout.

As for `Cc1cccc(C(C)(C)C)c1NC(=O)/C(Cc1nc2ccc([N+](=O)[O-])cc2[nH]c1=O)=N/NC(=O)C[N+](C)(C)C`, the TGI in assay [1], in assay [2], in assay [3], in assay [4], in assay [5] and in assay [6] was over 100 µM throughout. This molecule also displayed a TGI in assay [7] of over 100 µM.

As to `O=C1c2ccccc2C(=O)c2c1ccc(C(Br)Br)c2[N+](=O)[O-]`, the GI50 is 1.27 µM in assay [1]; 1.72 µM in assay [2]; 3.7 µM in assay [3]; 1.15 µM in assay [5]; 1.87 µM in assay [6]; 1.95 µM in assay [7]. Also, the GI50 in assay [8] is 1.42 µM. The TGI in assay [1] was determined as 2.59 µM; in assay [2], 4.4 µM; in assay [3] it was 15.7 µM; in assay [5] it was 2.87 µM; in assay [6], 4.22 µM; in assay [7], 4.35 µM. Besides, the TGI in assay [8] is 2.99 µM.

Take `CCCCCCCCCCCC(=O)OCC1OC(n2cc(F)c(=O)[nH]c2=O)C(NC(=O)OCc2ccccc2)C(O)C1O` (stereo unspecified): the TGI was 32.4 µM in assay [1]; 63.9 µM in assay [3]; 53.5 µM in assay [4]; over 100 µM in assay [5]; 49.7 µM in assay [6]; 43.7 µM in assay [7]. For the same molecule, the TGI in assay [8] was over 100 µM.

In the case of `O=P(Oc1ccc(Cl)cc1)(Oc1ccc(Cl)cc1)N1CC1`, the TGI in assay [1], in assay [2], in assay [3], in assay [4], in assay [6] and in assay [7] was over 10 µM in each case. The molecule also registered a TGI in assay [8] of over 10 µM.

As for `CCOC(=O)c1sc(-c2ccc(OS(=O)(=O)c3cccs3)c(C=O)c2)nc1C`, the GI50 in assay [1] is 1.77 µM; in assay [3], 1.72 µM; in assay [4] it was 1.01 µM; in assay [5], 1.29 µM; in assay [6], 1.89 µM. For the same molecule, the TGI in assay [1] stood at 3.33 µM; in assay [3], 3.36 µM; in assay [4], 4.72 µM; in assay [5], 3.41 µM; in assay [6], 4.93 µM.

On to `O=c1[nH]cc(CS(=O)(=O)Cc2c[nH]c(=O)[nH]c2=O)c(=O)[nH]1`, for which the TGI in assay [1], in assay [2], in assay [3], in assay [4], in assay [5] and in assay [7] was over 100 µM throughout.

`O=C(c1ccccc1)C1C(C(=O)c2ccccc2)N1Cc1ccccc1` (stereo unspecified): the TGI in assay [1], in assay [2], in assay [3], in assay [4], in assay [5] and in assay [7] was over 100 µM throughout. The same molecule showed a TGI in assay [8] of over 100 µM.

For `NC(=O)CCC(NC(=O)OCc1ccccc1)C(=O)OCC(=O)c1ccccc1` (stereo unspecified), the GI50 in assay [1], in assay [2], in assay [3], in assay [4], in assay [5] and in assay [6] was over 100 µM throughout. The GI50 in assay [8] is over 100 µM. In addition, the TGI in assay [1], in assay [2], in assay [3], in assay [4], in assay [5] and in assay [6] was over 100 µM throughout. Further, the TGI in assay [8] was over 100 µM.
